Results on four molecules are retold here after PMC11458958 (iScience, 2024).

Data set [1] relates to mice with post-infarction remodeling. Type of data set: in vivo, C57BL/6J mice. The note with it: 20 mg/kg daily oral.
For data set [2], the system named is TAC mice. The data set is described as follows: Transverse aortic constriction.
For data set [3], the system named is cathepsins B and L. To be noted: cited from earlier work.
Data set [4] relates to mice subjected to coronary occlusion and reperfusion. The data set is described as follows: In vivo acute reperfusion injury: 45 min coronary occlusion, 24 h reperfusion. The note with it: 25 mg/kg i.p. 10 min before reperfusion. Also on record: species or system C57BL/6J mice.
For data set [5], the system named is cathepsin L. The data set is described as follows: Cathepsin activity in heart homogenates. Type of data set: in vivo, C57BL/6J mice. To be noted: 25 mg/kg.
Data set [6] has as its system cathepsins K, B, L and S. To be noted: 25 mg/kg; cited from earlier work.
Setting [7] is: 4 weeks after TAC, 10 mg/kg daily oral from 1 to 4 weeks after TAC (3w).

Residues, ends and D or L forms follow the SMILES beside them. *: point of attachment. Cbz = O=C(OCc1ccccc1)*

In data set [1] (4 weeks of reperfusion), `CCOC(=O)[C@H](CCc1ccccc1)N[C@@H](C)C(=O)N1CCC[C@H]1C(=O)O` [Enalapril] returned an EF of 52.6 ± 2.2%, an FS of 22.7 ± 1.3%, an IVST of 0.79 ± 0.03 mm and an LVEDD of 4.85 ± 0.19 mm. Also, in data set [1] (4 weeks of reperfusion), the LVESD is recorded as 3.75 ± 0.12 mm and the LVPWT amounted to 0.67 ± 0.02 mm. Besides, the “reduction of scar size vs. control group” value in data set [1] (28 days) came to 24%. Besides, the mortality rate in data set [1] (28 days of reperfusion) was determined as 20%. Besides, in data set [2] (setting [7]), the EF was 49.5 ± 1.6^$∗ %, the FS is 20.8 ± 0.8^$∗ %, the HW amounted to 151.8 ± 4.9 mg and the HW/TL is 8.68 ± 0.26^$∗ mg/mm. Besides, in data set [2] (setting [7]), the IVST is given as 0.97 ± 0.03^$∗ mm, the LVEDD is 4.48 ± 0.05∗ mm, the LVESD is listed as 3.55 ± 0.05^$∗ mm and the LVPWT was 0.78 ± 0.03^$ mm. The “EF reduction with respect to baseline” value in data set [2] (4 weeks after TAC, 10 mg/kg daily oral starting 1 week after TAC) amounted to 16%. The “capillary density (CD31 staining)” value in data set [2] (starting 1 week after TAC surgery, 10 mg/kg daily oral) is listed as “preserved capillary density”.

For the molecule `CC(C)[C@H](NC(=O)OCc1ccccc1)C(=O)N[C@H](C=O)Cc1ccccc1` [MDL-28170] (Cbz-Val-Phe-aldehyde), the cathepsin inhibition result in data set [3] was “inhibit at least cathepsins B and L”.

With `COCCOCCOC(=O)N[C@@H](CC(C)C)C(=O)N[C@@H](Cc1ccccc1)C(=O)C(=O)NC1CC1` [SNJ-1945], in data set [3], the cathepsin inhibition result was “inhibit at least cathepsins B and L”.

`CCCN1CCN(c2ccc(C(=O)NC3(C(=O)NCC#N)CCCCC3)cc2)CC1` [balicatib]: in data set [4], the “effect on infarct size” value is recorded as “failed to attenuate infarct size”. For the same molecule, the “cathepsin L activity in heart homogenates, reduced, compared to sham mice” value in data set [5] is on record as 41.2 ± 7.3%. In data set [6], the “cathepsin inhibition at this dose” value was “inhibits cathepsins K, B, L and S”.
